The results in this text go back to EP1455790B1, “USE OF PYRIDINE-2,4-DICARBOXYLIC ACID DIAMIDES AND OF PYRIMIDINE-4,6-DICARBOXYLIC ACID DIAMIDES FOR SELECTIVE COLLAGENASE INHIBITION” (Sanofi-Aventis Deutschland GmbH, priority 2001, dated 2003).

Like-named read-outs stand apart in the source and are kept apart here.

The target of the assay is T1, katalytischen Domäne der humanen Kollagenase -3(MMP-13) (Homo sapiens, UniProt P45452).
T1 construct: Die Enzymlösung enthält 1,67 µg/mL der Enzymdomäne; purchased INVITEK, Berlin 30100 803
In words: Enzymatic activity of the catalytic domain of human collagenase-3 (MMP-13), fluorogenic substrate. The class given is biochemical.

Procedure: Aktivierung des Proenzyms: 2 Volumenanteile Proenzym werden mit 1 Volumenanteil APMA-Lösung bei 37 °C für 1,5 Stunden inkubiert. Die APMA-Lösung wird aus einer 10 mmol/L p-Aminophenyl-Mercuric Acetate Lösung in 0,1 mmol/L NaOH durch Verdünnen mit 3 Volumenteile Tris/HCl Puffer pH7,5 (siehe unten) hergestellt. Der pH-Wert wird durch Zugabe von 1 mmol/L HCl zwischen 7;0 und 7,5 eingestellt. Nach der Aktivierung des Enzyms wird dieses mit dem Tris/HCl Puffer auf eine Konzentration von 1,67 µg/mL verdünnt.
Zur Messung der Enzymaktivität werden 10 µL Enzymlösung mit 10 µL einer 3%igen (v/v) gepufferten Dimethylsulfoxid-Lösung (Reaktion 1) für.15 Minuten inkubiert. Zur Messung der Enzyminhibitoraktivität werden 10 µL Enzymlösung mit 10 µL einer 3%igen (v/v) gepufferten Dimethylsulfoxid-Lösung, die den Enzyminhibitor enthält, inkubiert (Reaktion 2).
Die Enzymaktivität wird dargestellt als Extinktionszunahme/Minute. […] Die Pufferlösung enthält 0,05% Brij (Sigma, Deisenhofen, Deutschland) sowie 0,1 mol/L Tris/HCI, 0,1 mol/L NaCI, 0,01 mol/L CaCl2 (pH=7,5). Die Enzymlösung enthält 1,67 µg/mL der Enzymdomäne. Die Substratlösung enthält 0,75 mmol/L des fluorogenen Substrates (7-Methoxycoumarin-4-yl)acetyl-Pro-Leu-Gly-Leu-3-(2',4'-dinitrophenyl)-L-2,3-diaminopropionyl-Ala-Arg-NHz (Bachem, Heidelberg, Deutschland).

For the compound `CCNC(=O)c1cc(C(=O)NCC)ncn1` [Pyrimidin-4,6-dicarbonsäurediethylamid], the IC50 (comparative example, same method as Table 4, read-out: IC50-Wertes für die Inhibition der humanen Kollagenase -3 (MMP-13)) came to 90 µM. For `O=C(NCc1ccccc1)c1cc(C(=O)NCc2ccccc2)ncn1` [Beispiel 1, Pyrimidin-4,6-dicarbonsäure-dibenzylamid], where the note is “catalytic domain, APMA-activated pro-enzyme, Tris/HCl buffer pH 7,5, read-out: IC50 MMP13”, the 50% inhibitory concentration (IC50) amounted to 0.4 µM.

What is called IC50 is the concentration at which inhibition is half-maximal.
